# PMC8523698, “Preclinical characterization of an intravenous coronavirus 3CL protease inhibitor for the potential treatment of COVID19” (Nature Communications, 2021)
# “And” between values parts separate entries of the source, which are not always exact repeats. Identical values can stand only once. Like-named read-outs stand apart in the source and are kept apart here.
# Assays:
# HCoV-229E = assay: Viral CPE assay in MRC-5 cells (CellTiter Glo); type: cell-based
# MATE2K = biological target: T1, MATE2K (Homo sapiens, UniProt Q86VL8); assay: Transporter inhibition using transfected HEK293 cells; type: in vitro ADME; conditions: IC50, [14C]Metformin (20 µM)
# T1 construct: expressed in transfected cells; host or cells: HEK293
# T1 sequence (Q86VL8 1-566 isoform Q86VL8-3): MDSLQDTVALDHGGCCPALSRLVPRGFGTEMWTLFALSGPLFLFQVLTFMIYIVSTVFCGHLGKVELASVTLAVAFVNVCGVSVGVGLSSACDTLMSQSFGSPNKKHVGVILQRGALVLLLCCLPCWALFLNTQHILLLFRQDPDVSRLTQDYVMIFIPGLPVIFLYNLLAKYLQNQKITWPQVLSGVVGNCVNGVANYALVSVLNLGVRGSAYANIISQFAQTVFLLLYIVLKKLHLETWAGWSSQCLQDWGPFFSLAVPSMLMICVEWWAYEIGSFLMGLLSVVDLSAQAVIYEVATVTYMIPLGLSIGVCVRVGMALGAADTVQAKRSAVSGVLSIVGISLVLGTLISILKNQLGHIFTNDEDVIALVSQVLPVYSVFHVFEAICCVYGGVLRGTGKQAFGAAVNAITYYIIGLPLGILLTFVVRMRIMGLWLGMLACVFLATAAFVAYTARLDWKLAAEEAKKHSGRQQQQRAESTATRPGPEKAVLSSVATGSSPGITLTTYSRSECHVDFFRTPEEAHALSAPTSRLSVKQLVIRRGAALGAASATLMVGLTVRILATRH
# Protocol: For the inhibition studies, HEK293 cells were washed three times with warm transport buffer (Hanks’ balanced salt solution with 20 mM 4-(2-Hydroxyethyl) piperazine-1-ethanesulfonic acid, pH 7.4) followed by incubation with test compounds containing probe substrates: 10 or 20 µM [^14C]-metformin (OCT1, OCT2, MATE1, MATE2K), 0.5 µM [^3H] para-aminohippuric acid (OAT1), 0.1 µM [^3H] estrone-3-sulfate (OAT3) or 0.5 µM rosuvastatin (OATP1B1/1B3). Uptake was terminated by washing cells at least three times with ice-cold transport buffer and then lysing with 0.2 mL of scintillation fluid or 0.225 mL of methanol containing internal standard. For radiolabeled compounds, radioactivity in each sample was quantified by measurement on MicroBeta (Perkin Elmer). For rosuvastatin, cell extracts were dried down under nitrogen and reconstituted in 50:50 (v:v) methanol:water prior to injection onto a LC-MS/MS system. The total cellular protein content was determined by using a BCA Protein Assay Kit (Pierce Biotechnology) following the manufacturer’s protocol. Uptake ratio was then derived as a ratio of accumulation in transfected cells to accumulation in wild-type cells. The half-maximal inhibitory concentration (IC50) for each transporter was calculated in GraphPad Prism.
# in vitro = conditions: African green monkey, CC50
# BCRP = BCRP (Homo sapiens, UniProt Q9UNQ0); assay: Transporter inhibition using membrane vesicles; conditions: IC50, Rosuvastatin (0.2 µM)
# BCRP, sequence (Q9UNQ0 whole entry): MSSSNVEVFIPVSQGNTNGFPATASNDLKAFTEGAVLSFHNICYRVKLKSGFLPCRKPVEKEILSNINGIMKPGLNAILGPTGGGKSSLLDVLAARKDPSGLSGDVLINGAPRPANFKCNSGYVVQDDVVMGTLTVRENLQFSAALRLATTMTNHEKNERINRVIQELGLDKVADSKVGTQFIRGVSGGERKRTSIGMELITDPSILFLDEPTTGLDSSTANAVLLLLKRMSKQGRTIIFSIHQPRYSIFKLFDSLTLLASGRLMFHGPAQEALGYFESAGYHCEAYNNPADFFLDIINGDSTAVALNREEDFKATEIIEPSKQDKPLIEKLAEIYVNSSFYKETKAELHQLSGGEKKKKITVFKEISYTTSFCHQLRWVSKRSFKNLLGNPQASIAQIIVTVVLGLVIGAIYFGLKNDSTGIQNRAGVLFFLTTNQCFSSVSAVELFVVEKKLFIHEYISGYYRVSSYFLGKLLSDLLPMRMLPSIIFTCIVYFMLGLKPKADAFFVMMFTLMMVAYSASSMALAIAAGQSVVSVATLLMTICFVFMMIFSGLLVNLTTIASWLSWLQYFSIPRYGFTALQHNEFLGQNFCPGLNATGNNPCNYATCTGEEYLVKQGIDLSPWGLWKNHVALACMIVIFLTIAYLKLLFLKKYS
# [1] = Plasma protein binding by equilibrium dialysis; conditions: rat plasma, 3.44 uM; for fraction unbound at 6 h, 3.44 uM: rat, plasma
# CYP2C19 = CYP2C19 (Homo sapiens, UniProt P33261); assay: Reversible CYP inhibition in human liver microsomes; conditions: for activity at 0.01 µM / activity at 0.158 µM / activity at 0.398 µM / activity at 1 µM / activity at 15.8 µM / activity at 39.8 µM / activity at 100 µM: human, microsomes, pH 7.4, Percent of Control Activity; for activity at 39.8 µM: CYP 2C19, 39.8 µM
# CYP2C19, sequence (P33261 whole entry): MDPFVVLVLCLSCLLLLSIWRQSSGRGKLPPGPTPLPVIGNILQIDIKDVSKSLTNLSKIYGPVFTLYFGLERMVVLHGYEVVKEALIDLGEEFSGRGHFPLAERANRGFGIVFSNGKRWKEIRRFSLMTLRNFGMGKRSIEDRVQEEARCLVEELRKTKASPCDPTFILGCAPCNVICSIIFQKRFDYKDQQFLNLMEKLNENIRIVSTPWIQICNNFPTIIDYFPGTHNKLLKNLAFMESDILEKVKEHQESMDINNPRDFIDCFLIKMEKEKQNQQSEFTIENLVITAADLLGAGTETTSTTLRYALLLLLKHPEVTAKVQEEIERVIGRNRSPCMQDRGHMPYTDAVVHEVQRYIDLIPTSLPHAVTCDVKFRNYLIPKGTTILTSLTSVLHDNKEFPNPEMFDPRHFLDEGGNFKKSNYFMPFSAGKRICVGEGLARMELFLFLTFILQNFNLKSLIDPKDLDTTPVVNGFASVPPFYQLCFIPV
# OAT3 = biological target: T2, OAT3 (Homo sapiens, UniProt Q8TCC7); assay: Transporter inhibition using transfected HEK293 cells; conditions: IC50, [3H]ES (0.1 µM)
# T2 sequence (Q8TCC7 1-542): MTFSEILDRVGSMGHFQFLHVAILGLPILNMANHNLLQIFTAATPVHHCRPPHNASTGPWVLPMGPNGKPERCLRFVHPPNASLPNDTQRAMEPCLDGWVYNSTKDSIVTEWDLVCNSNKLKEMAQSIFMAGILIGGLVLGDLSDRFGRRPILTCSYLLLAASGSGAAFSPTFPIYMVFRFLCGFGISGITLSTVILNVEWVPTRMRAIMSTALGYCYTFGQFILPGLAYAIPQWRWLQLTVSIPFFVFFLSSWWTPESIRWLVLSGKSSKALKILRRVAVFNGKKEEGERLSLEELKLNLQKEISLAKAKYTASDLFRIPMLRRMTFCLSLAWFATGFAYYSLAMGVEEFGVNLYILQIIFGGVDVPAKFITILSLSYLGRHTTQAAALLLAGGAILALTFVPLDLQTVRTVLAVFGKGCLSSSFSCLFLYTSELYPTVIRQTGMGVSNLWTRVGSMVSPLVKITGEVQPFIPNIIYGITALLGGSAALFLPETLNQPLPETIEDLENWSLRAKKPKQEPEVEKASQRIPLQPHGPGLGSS
smiles,measurement,setting,value
COc1cccc2[nH]c(C(=O)N[C@@H](CC(C)C)C(=O)N[C@@H](C[C@@H]3CCNC3=O)C(=O)COP(=O)(O)O)cc12 [PF-07304814],EC50,"HCoV-229E; Human coronavirus 229E, MRC5, read-out: EC50 GeoMean (95% CI), efflux inhibitor CP-100356: 0",0.074 µM
same,EC50,"HCoV-229E; Human coronavirus 229E, MRC5, read-out: EC50 GeoMean (95% CI), efflux inhibitor CP-100356: 0.5 μM",0.058 µM
same,EC50,"HCoV-229E; MRC-5, plus 0.5 uM efflux inhibitor, one value per run date (N=3), read-out: EC50",0.0818 µM
same,IC50,MATE2K,> 300 µM
same,CC50,in vitro,> 100 µM
same,IC50,BCRP,238 µM and > 130 µM
same,"fraction unbound at 6 h, 3.44 uM","[1]; Sprague-Dawley, pH 7.4, fraction unbound Geomean, n=12",0.379
same,"fraction unbound at 6 h, 3.44 uM","[1]; both, Sprague Dawley, pH 7.4, Individual fraction unbound, Sprague Dawley, male and female, Day 1",0.404
same,"fraction unbound at 6 h, 3.44 uM","[1]; both, Sprague Dawley, pH 7.4, Individual fraction unbound, Sprague Dawley, male and female, Day 2",0.362
same,"fraction unbound at 6 h, 3.44 uM","[1]; both, Sprague Dawley, pH 7.4, Individual fraction unbound, Sprague Dawley, male and female, Day 3",0.404
same,Individual fraction unbound,"[1]; Sprague Dawley, male and female, Day 1",0.384 and 0.405 and 0.491
same,Individual fraction unbound,"[1]; Sprague Dawley, male and female, Day 2",0.301 and 0.338 and 0.325
same,Individual fraction unbound,"[1]; Sprague Dawley, male and female, Day 3",0.406 and 0.385 and 0.381
same,IC50,CYP2C19,> 100 µM
same,Percent of Control Activity,"CYP2C19; CYP 2C19, 0.01 µM, Zero-Minute Preincubation, 0.01 µM",94.2%
same,Percent of Control Activity,"CYP2C19; CYP 2C19, 0.158 µM, 30-Minute Preincubation, 0.158 µM",96.4%
same,Percent of Control Activity,"CYP2C19; CYP 2C19, 0.158 µM, Zero-Minute Preincubation, 0.158 µM",101.4%
same,Percent of Control Activity,"CYP2C19; CYP 2C19, 0.398 µM, 30-Minute Preincubation, 0.398 µM",100.7%
same,Percent of Control Activity,"CYP2C19; CYP 2C19, 0.398 µM, Zero-Minute Preincubation, 0.398 µM",97.9%
same,Percent of Control Activity,"CYP2C19; CYP 2C19, 1 µM, 30-Minute Preincubation, 1 µM",97.8%
same,Percent of Control Activity,"CYP2C19; CYP 2C19, 1 µM, Zero-Minute Preincubation, 1 µM",102.1%
same,Percent of Control Activity,"CYP2C19; CYP 2C19, 15.8 µM, 30-Minute Preincubation, 15.8 µM",97.1%
same,Percent of Control Activity,"CYP2C19; CYP 2C19, 15.8 µM, Zero-Minute Preincubation, 15.8 µM",107.2% and 102.9%
same,Percent of Control Activity,"CYP2C19; CYP 2C19, 100 µM, 30-Minute Preincubation, 100 µM",97.8% and 97.1%
same,IC50,"CYP2C19; S-Mephenytoin 4′-hydroxylation, T0",> 100 µM
same,activity at 0.01 µM,"CYP2C19; CYP 2C19, 0.01 µM, 30-Minute Preincubation",103%
same,activity at 0.01 µM,"CYP2C19; CYP 2C19, 0.01 µM, Zero-Minute Preincubation",99.3%
same,activity at 0.158 µM,"CYP2C19; CYP 2C19, 0.158 µM, 30-Minute Preincubation",100%
same,activity at 0.158 µM,"CYP2C19; CYP 2C19, 0.158 µM, Zero-Minute Preincubation",94.4%
same,activity at 0.398 µM,"CYP2C19; CYP 2C19, 0.398 µM, 30-Minute Preincubation",102%
same,activity at 0.398 µM,"CYP2C19; CYP 2C19, 0.398 µM, Zero-Minute Preincubation",96.5%
same,activity at 1 µM,"CYP2C19; CYP 2C19, 1 µM, 30-Minute Preincubation",101%
same,activity at 1 µM,"CYP2C19; CYP 2C19, 1 µM, Zero-Minute Preincubation",95.8%
same,activity at 15.8 µM,"CYP2C19; CYP 2C19, 15.8 µM, 30-Minute Preincubation",102%
same,activity at 15.8 µM,"CYP2C19; CYP 2C19, 15.8 µM, Zero-Minute Preincubation",104%
same,activity at 39.8 µM,CYP2C19; 30-Minute Preincubation,97.7%
same,activity at 39.8 µM,CYP2C19; Zero-Minute Preincubation,94.4%
same,activity at 100 µM,"CYP2C19; CYP 2C19, 100 µM, 30-Minute Preincubation",95.5%
same,activity at 100 µM,"CYP2C19; CYP 2C19, 100 µM, Zero-Minute Preincubation",91.5%
same,IC50,OAT3,> 300 µM
